In US20110098283A1, “3-CINNOLINECARBOXAMIDE DERIVATIVES AND THEIR USE FOR TREATING CANCER” (ASTRAZENECA AB, priority 2007, published 2011):

Target: T1, CSF-1R (His-tagged kinase domain, amino acids 568-912) (Homo sapiens, UniProt P07333)
T1 construct: The His-tagged kinase domain of CSF-1R (i.e., amino acids 568-912, GeneBank ID NM_005211); His; made in house; host or cells: baculovirus infected SF+Express insect cells
T1 sequence (P07333 568-912): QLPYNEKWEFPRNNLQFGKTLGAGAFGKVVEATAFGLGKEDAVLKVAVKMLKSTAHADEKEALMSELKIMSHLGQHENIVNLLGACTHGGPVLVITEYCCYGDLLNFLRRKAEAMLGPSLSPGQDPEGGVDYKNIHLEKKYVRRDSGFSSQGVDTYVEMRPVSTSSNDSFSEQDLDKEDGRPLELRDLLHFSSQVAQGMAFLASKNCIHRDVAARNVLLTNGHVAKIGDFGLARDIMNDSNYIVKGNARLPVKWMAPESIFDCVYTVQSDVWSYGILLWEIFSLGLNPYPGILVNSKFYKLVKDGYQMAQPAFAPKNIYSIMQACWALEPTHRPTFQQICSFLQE
Assay: Assay 2: CSF1R in-vitro AlphaScreen Assay
Format: biochemical
Conditions: phosphorylation of pEY substrate; 0.46 nM CSF-1R, 12 mM ATP in mix
Protocol: Assay 2: CSF1R in-vitro AlphaScreen Assay
Activity of purified CSF-1R was determined in-vitro using an Amplified Luminescent Proximity Homogeneous Assay (ALPHA) (Perkin Elmer, Mass.), which measures phosphorylation of CSF-1R substrate, biotinylated poly-glutamine-tyrosine peptide (pEY-HTRF CisBio 61GT0BLD), as described below. The His-tagged kinase domain of CSF-1R (i e, amino acids 568-912, GeneBank ID NM_005211) was purified from baculovirus infected SF+Express insect cells (1.4×10^6 cells/ml), French pressed and chromatographed through subsequent QIAgen Ni-NTA, Superflow Mono Q HR 10/10, and Superdex 200 SEC columns.
The phosphorylation of the CSF-1R substrate in the presence and absence of the compound of interest was determined. Briefly, 5 ul of Enzyme/Substrate/adenosine triphosphate (ATP) mix consisting of 0.46 nM of purified CSF-1R, 12 nM pEY substrate, and 12 mM ATP in 1.2× buffer was preincubated with 2 ul of compound for 20 minutes at 25° C. Reactions were initiated with 5 ul of Metal mix consisting of 24 mM MgCl2 in 1.2× buffer and incubated at 25° C. for 90 minutes and reactions were stopped by addition of 5 ul of Detection mix consisting of 20 mM HEPES, 102 mM ethylenediamine tetraacetic acid, 1.65 mg/ml BSA, 136 mM NaCl, 40 ug/ml Streptavidin donor beads (Perkin Elmer, Mass., Catalog #6760002), and 40 ug/ml phosphotyrosine-specific antibody coated acceptor beads (Perkin Elmer, Mass., Catalog #6760620). Plates were incubated at 25° C. for 18 hours in the dark. Phosphorylated substrate was detected by an EnVision plate reader (Perkin Elmer) 680 nm excitation, 520-620 nm emission. Data was graphed and IC50s calculated using Excel Fit (Microsoft).

COc1cc2nnc(C(N)=O)c(Nc3ccc(C)cc3F)c2cc1C1=CCN(CCO)CC1 [Example 34, 4-[(2-Fluoro-4-methylphenyl)amino]-6-[1-(2-hydroxyethyl)-1,2,3,6-tetrahydropyridin-4-yl]-7-methoxycinnoline-3-carboxamide]
IC50: 5 nM

COc1cc2nnc(C(N)=O)c(Nc3ccc(C)cc3F)c2cc1N1C[C@@H](C)N[C@@H](C)C1 [Example 36, 6-[(3R,5S)-3,5-Dimethylpiperazin-1-yl]-4-[(2-fluoro-4-methylphenyl)amino]-7-methoxycinnoline-3-carboxamide]
IC50: < 3 nM

COc1cc2nnc(C(N)=O)c(Nc3ccc(C)cc3F)c2cc1N1C[C@@H](C)O[C@@H](C)C1 [Example 37, 6-[(2R,6S)-2,6-Dimethylmorpholin-4-yl]-4-[(2-fluoro-4-methylphenyl)amino]-7-methoxycinnoline-3-carboxamide]
IC50: 71 nM

COc1cc2nnc(C(N)=O)c(Nc3ccc(C)cc3F)c2cc1N1CCN(CC(F)(F)F)CC1 [Example 42, 4-[(2-Fluoro-4-methylphenyl)amino]-7-methoxy-6-[4-(2,2,2-trifluoroethyl)piperazin-1-yl]cinnoline-3-carboxamide]
IC50: 7 nM

CCOc1cc2nnc(C(N)=O)c(Nc3ccc(C)cc3F)c2cc1N1CCN(CCO)CC1 [Example 43, 7-Ethoxy-4-[(2-fluoro-4-methylphenyl)amino]-6-[4-(2-hydroxyethyl)piperazin-1-yl]cinnoline-3-carboxamide]
IC50: 3 nM

COc1cc2nnc(C(N)=O)c(Nc3ccc(F)cc3F)c2cc1N1C[C@@H](C)N[C@@H](C)C1 [Example 44, 4-[(2,4-Difluorophenyl)amino]-6-[(3R,5S)-3,5-dimethylpiperazin-1-yl]-7-methoxycinnoline-3-carboxamide]
IC50: 16 nM

COc1cc2nnc(C(N)=O)c(Nc3cccc(Cl)c3F)c2cc1N1C[C@@H](C)N[C@@H](C)C1 [Example 45, 4-[(3-Chloro-2-fluorophenyl)amino]-6-[(3R,5S)-3,5-dimethylpiperazin-1-yl]-7-methoxycinnoline-3-carboxamide]
IC50: 6 nM

COc1cc2nnc(C(N)=O)c(Nc3ccc(C)cc3F)c2cc1C1CCN(S(C)(=O)=O)CC1 [Example 50, 4-[(2-Fluoro-4-methylphenyl)amino]-7-methoxy-6-[1-(methylsulfonyl)piperidin-4-yl]cinnoline-3-carboxamide]
IC50: 33 nM
